Where two headings read alike, the source gives them in different places.

Test [1] concerns wild-type Con1 (GT1b) replicon colonies. Description: Degree of resistance of replicon colonies, wild-type. As to conditions: Hepatitis C virus, read-out: EC50 of STG-175, WT colonies. The class given is cell-based. The procedure:
Huh-7 cells expressing subgenomic Con1 (GT1b) replicon were incubated with STG-175 and 100 μg/ml of G418 in 10 cm CellBIND™ plates (Corning). Cells were split every 3 days at 1:6 and G418 concentration was increased sequentially to 200 and 300 μg/mL. […] At this point, medium was changed every 3–4 days until emergence of resistant clones. Clones were individually transferred to 24-well CellBIND using cloning disks. […] Each clone was split in 2 identical plates and was separately maintained under 0.5 or 1.0 μM STG-175 and 100 μg/mL of G418. Once the colonies were established, G418 concentration was increased to 300 μg/mL. […] Briefly, total RNA was prepared using the RNeasy Plus Mini Kit as per manufacturer’s recommendation. […] The amplicons were gel purified, quantitated and sequenced using primers located internally in NS5A or NS5B reading to the 5’ and 3’ ends. Sequences were assembled and analyzed using the ClustalW algorithm within the MacVector program. […]
Fig 3 Replicon clearance, replication rebound and resistance analyses. […] At each passage, samples of cells were collected, RNA extracted and analyzed by RT-PCR for HCV RNA levels. […] At each passage, sample of cells were collected, RNA extracted and analyzed by RT-PCR for HCV RNA levels. […] Data are expressed as number of HCV RNA copies per cell. […] Data are expressed as mean of relative light units and calculated EC50s are presented. […]

The test system of test [2] is wild-type Con1 GT1b replicon. Description: Electroporated Con1 RNA replication in Huh7.5.1 cells (RT-qPCR), wild-type. In kind it is cell-based. The note with it: Hepatitis C virus. The source says:
The GT1b subgenomic firefly luciferase reporter replicon pFK-I389/NS3–3 was provided by R. Bartenschlager. The GT1B subgenomic NS3, NS5A and NS5B mutants were created via homologous recombination using the In-Fusion HD Cloning kit (Clontech) as we described previously. […] The in vitro transcription of wild-type and mutant Con1 RNA was accomplished using the T7 MEGAscript kit (Ambion) by following the manufacturer’s instructions. In vitro-transcribed RNAs were introduced into Huh7.5.1 cells by electroporation. Trypsinized cells were washed twice and resuspended in phosphate-buffered saline (PBS) (calcium-free and magnesium-free) at 1x 10^7 cells per ml. Ten micrograms of RNA for each mutant was mixed with 0.4 mL of cells in a 4-mm cuvette, and a Bio-Rad Gene Pulser system was used to deliver a single pulse at 0.27 kV, 100 ohms, and 960 μF. Cells were then plated in 12-well dishes. RNA transfection efficiency and HCV subgenomic replication were assessed by reverse transcription-quantitative PCR (RT-qPCR) and presented as genome equivalents (GE) per microgram of total RNA as described previously. We measured by RT-qPCR the replication of wild-type, STG-175-, NS5Ai-, NS3i- and NS5Bi-resistant mutants in the presence of increasing concentrations of SGT-175, daclatasvir, telaprevir, boceprevir and sofosbuvir over a period of 8 days.
Fig 3 Replicon clearance, replication rebound and resistance analyses. […] Then drugs were removed to allow viral replication rebound to occur. At each passage, samples of cells were collected, RNA extracted and analyzed by RT-PCR for HCV RNA levels. B. Emergence of resistance: Con1 replicon Huh-7 cells were passaged 22 times in the absence or presence of STG-175 or selected DAAs. At each passage, sample of cells were collected, RNA extracted and analyzed by RT-PCR for HCV RNA levels. C. […] Data are expressed as number of HCV RNA copies per cell. […] Data are expressed as mean of relative light units and calculated EC50s are presented. […] E. Degree of resistance of D320E and Y321N Con1 variants: Left panel. Wild-type (WT), D320E and D320/Y321N NS5A Con1 RNA were electroporated into Huh7.5.1 cells and replication monitored over 8 days by quantifying the levels of intracellular HCV RNA. Right panel. Same as just above except that increasing concentrations of STG-175 were added at the time of the electroporation. […] STG-175 is taken as the substance from the printed x-axis title 'STG-175 in Log nM'.
To determine whether the D320E and Y321N substitutions truly render HCV resistant to STG-175, they were introduced into wild-type Con1 replicon as we described previously. Introduction of the substitutions was verified by sequencing. In vitro-transcribed wild-type, D320E and D320E/Y321N HCV RNAs were then electroporated into Huh7.5.1 cells and viral replication assessed by RT-qPCR and presented as GE per microgram of total RNA as we described previously. […] We then analyzed the replication of wild-type, D320E and D320E/Y321N in the presence of increasing concentrations of SGT-175 over a period of 8 days.
Fig 5 Cross-resistance analyses.

For the molecule `CC=CCC(C)C(O)C1C(=O)NC(CC)C(=O)N(C)C(CSCCCCO)C(=O)N(C)C(CC(C)(C)O)C(=O)NC(C(C)C)C(=O)N(C)C(CC(C)C)C(=O)NC(C)C(=O)NC(C)C(=O)N(C)C(CC(C)C)C(=O)N(C)C(CC(C)C)C(=O)N(C)C(C(C)C)C(=O)N1C` (stereo not shown) [STG-175], the EC50 is 15.7 nM in test [1]; 35.7 nM in test [2] (Huh-7.5.1, 144 h, read-out: EC50, WT replicon); 34.4 nM in test [2] (Huh-7.5.1, 192 h, read-out: EC50, WT replicon); 10.6 nM in test [2] (Huh-7.5.1, 192 h, read-out: EC50 GT1b WT).
